According to ChEMBL document CHEMBL1158133, “Cytotoxic flavaglines and bisamides from Aglaia edulis” (J Nat Prod, 2006):
Converted amounts (≈) assume the structure as drawn.

How the values were obtained:
[1] = Cytotoxicity against HUVEC; format: cell-based; details: human, HUVEC cells; read-out: ED50 (the source's name)
MCF7 = experiment: Cytotoxicity against human MCF7 cells; format: functional; details: read-out: ED50 (the source's name)
LNCaP = experiment: Cytotoxicity against human LNCAP cells; format: functional; details: read-out: ED50 (the source's name)
Lu1 = experiment: Cytotoxicity against human Lu1 cells; format: functional; details: read-out: ED50 (the source's name)
P388 = experiment: In vivo antitumor activity against mouse P388 cellsleukemia model at 4.5 mg/kg, ip; format: functional; details: route intraperitoneal

SMILES | CC50 [1] | EC50 (MCF7) | EC50 (LNCaP) | EC50 (Lu1) | T/C (P388)
COc1ccc(-c2oc3cc(OC)c(OC)c(O)c3c(=O)c2OC)cc1 | > 5 µg/mL | > 5 µg/mL | > 5 µg/mL | > 5 µg/mL | 
C[S+]([O-])/C=C/C(=O)NC1CCCN1C(=O)/C=C/c1ccccc1 (stereo not given) [AGLAMIDE B] | > 5 µg/mL | > 5 µg/mL | > 5 µg/mL | > 5 µg/mL | 
COc1ccc([C@@]23Oc4cc5c(c(OC)c4[C@]2(O)[C@H](OC(C)=O)[C@H](C(=O)N(C)C)[C@H]3c2ccccc2)OCO5)cc1OC | 0.5 µg/mL (≈ 0.845 µM) | 0.8 µg/mL (≈ 1.35 µM) | 0.3 µg/mL (≈ 0.507 µM) | 0.5 µg/mL (≈ 0.845 µM) | 
COc1ccc([C@]23Oc4cc5c(c(OC)c4[C@](O)([C@H](C(=O)N4CCCC4NC(=O)CC(C)C)[C@H]2c2ccccc2)[C@@H]3OC(C)=O)OCO5)cc1 (stereo not given in full) | > 5 µg/mL | > 5 µg/mL | > 5 µg/mL | > 5 µg/mL | 
COc1ccc([C@]23Oc4cc5c(c(OC)c4[C@](O)([C@H](C(=O)N4CCCC4NC(=O)CC(C)C)[C@H]2c2ccccc2)[C@@H]3O)OCO5)cc1 (stereo not given in full) [EDULIRIN A] | > 5 µg/mL | > 5 µg/mL | > 5 µg/mL | > 5 µg/mL | 
COc1cc2ccc(=O)oc2cc1O [SCOPOLETIN] | > 5 µg/mL | > 5 µg/mL | > 5 µg/mL | > 5 µg/mL | 
COc1ccc([C@]23Oc4cc5c(c(OC)c4[C@](O)([C@H](c4ccccc4)[C@H]2C(=O)N2CCCC2NC(=O)CC(C)C)[C@@H]3O)OCO5)cc1 (stereo not given in full) [EDULIRIN B] | > 5 µg/mL | > 5 µg/mL | > 5 µg/mL | > 5 µg/mL | 
CC(C)CC(=O)NC1CCCN1C(=O)/C=C/c1ccccc1 (stereo not given) [AGLAMIDE C] | > 5 µg/mL | > 5 µg/mL | > 5 µg/mL | > 5 µg/mL | 
COc1ccc([C@]23Oc4cc5c(c(OC)c4[C@](O)([C@H](C(=O)N4CCCC4NC(=O)C=C(C)C)[C@H]2c2ccccc2)[C@@H]3O)OCO5)cc1 (stereo not given in full) [19,20-DEHYDROEDULIRIN A] | > 5 µg/mL | > 5 µg/mL | > 5 µg/mL | > 5 µg/mL | 
COc1ccc([C@]23Oc4cc5c(c(OC)c4[C@](O)([C@@H](c4ccccc4)[C@@H]2C(=O)N2CCCC2NC(=O)CC(C)C)[C@@H]3O)OCO5)cc1 (stereo not given in full) [ISOEDULIRIN A] | > 5 µg/mL | > 5 µg/mL | > 5 µg/mL | > 5 µg/mL | 
COc1ccc([C@@]23Oc4cc5c(c(OC)c4[C@]2(O)[C@H](OC(C)=O)[C@H](C(=O)N(C)C)[C@H]3c2ccccc2)OCO5)cc1 | 0.5 µg/mL (≈ 0.89 µM) | 0.02 µg/mL (≈ 0.0356 µM) | 0.01 µg/mL (≈ 0.0178 µM) | 0.001 µg/mL (≈ 0.00178 µM) | 110%
COc1ccc(C2C(=O)Oc3cc4c(c(OC)c32)OCO4)cc1 (stereo not given) [AGLALACTONE] | > 5 µg/mL | > 5 µg/mL | > 5 µg/mL | > 5 µg/mL | 
COC1CCCN1C(=O)/C=C/c1ccccc1 (stereo not given) [AGLAMIDE D] | > 5 µg/mL | > 5 µg/mL | > 5 µg/mL | > 5 µg/mL | 
CS/C=C/C(=O)NC1CCCN1C(=O)/C=C/c1ccccc1 (stereo not given) [AGLAMIDE A] | > 5 µg/mL | > 5 µg/mL | > 5 µg/mL | > 5 µg/mL | 
COC(=O)[C@@]1(c2ccc(OC)cc2)Oc2cc3c(c(OC)c2C(=O)[C@H](C(=O)N2CCC[C@@H]2NC(=O)C=C(C)C)[C@H]1c1ccccc1)OCO3 [19,20-DEHYDROEDULISONE A] | > 5 µg/mL | > 5 µg/mL | > 5 µg/mL | > 5 µg/mL | 
COc1ccc([C@@]23Oc4cc5c(c(OC)c4[C@]2(O)[C@H](O)[C@H](C(=O)N(C)C)[C@H]3c2ccccc2)OCO5)cc1 [AGLAROXIN A] | 0.1 µg/mL (≈ 0.192 µM) | 0.06 µg/mL (≈ 0.115 µM) | 0.02 µg/mL (≈ 0.0385 µM) | 0.04 µg/mL (≈ 0.077 µM) | 
